Columns and labels:
[1] = tested on: UCMS mice; assay: Novel Object Recognition Test (NORT) in UCMS mice; format: in vivo, ICR mice; settings: 100 mg/kg/day p.o.
Experimental: (§1) Five-week-old male ICR mice (weight: 20–30 g), which were acquired from Nomura Siam International (Pathumwan, Bangkok, Thailand), were maintained at the Animal Unit of the Faculty of Pharmaceutical Sciences, Khon Kaen University. Mice were cared for in accordance with the Guiding Principles for the Care and Use of Animals (NIH Publications No. 80–23, revised in 2011). The facilities sustained a 12 h light/dark cycle, constant temperature (22 ± 2 °C), and humidity (45 ± 2%), with full access to food and drink. The current research was authorized by the Animal Ethics Committee for Use and Care of Khon Kaen University (IACUC-KKU-121/64)
(§2) Mice in the stress groups received mild stressors for 6 weeks. […]
The NORT is used to investigate the spatial recognition memory associated with the ability to discriminate between two sets of objects that differ in texture, color, and shape. […] The mouse was free to explore the objects for 5 min and the total time spent exploring each object and the percentage discrimination index were recorded. […] The exploration ratio was calculated according to the following equation:% Discrimination index = [(TN − TF)/(TN + TF)] × 100 where, TN = time devoted to the novel object, TF = time devoted to the familiar object.

[2] = tested on: UCMS mice; assay: Lipid peroxidation (TBARs, MDA) in frontal cortex and hippocampus of UCMS mice; format: in vivo, ICR mice; settings: 100 mg/kg/day
Experimental: as §1, §2
The lipid peroxidation was measured in the homogenates of the hippocampus and frontal cortex by using TBARs assay as previously described by Khamphukdee et al.. […] The intensity of the pink-colored complex MDA-TBA condensation indicated the extent of a lipid peroxidation, and their protein contents were quantified by the Bradford assay. The absorbance of the MDA-TBA complex was measured by UV/Visible spectrophotometer (Perkin Elmer Inc., Waltham, MA, USA) at 532 nm. Levels of the MDA were calculated from the MDA standard and presented as nmol MDA/mg protein.

Substance: vitamin E
- discrimination index performance (NORT test phase) [1]: significantly ameliorated
- UCMS-induced lipid peroxidation (MDA level) [2]: significant neuroprotection

— paper PMC9103351, “Effects of the Bark Resin Extract of Garcinia nigrolineata on Chronic Stress-Induced Memory Deficit in Mice Model and the In Vitro Monoamine Oxidases and β-Amyloid Aggregation Inhibitory Activities of Its Prenylated Xanthone Constituents” (Molecules, 2022)
